# According to ChEMBL document CHEMBL3286360, “Tuning the antimicrobial pharmacophore to enable discovery of short lipopeptides with multiple modes of action” (Eur J Med Chem, 2014):
# Where a SMILES comes first, the peptide text is derived from it. The star is where a group is joined. Stearoyl = CCCCCCCCCCCCCCCCCC(=O)*; Myristoyl = CCCCCCCCCCCCCC(=O)*; Decanoyl = CCCCCCCCCC(=O)*
# Columns and labels:
# Type in all cases: functional
# Staphylococcus aureus = test: Antimicrobial activity against Staphylococcus aureus ATCC 12600 after 17 to 20 hrs by serial dilution method
# Candida albicans = test: Antimicrobial activity against Candida albicans ATCC 14053 after 17 to 20 hrs by serial dilution method
# Escherichia coli = test: Antimicrobial activity against Escherichia coli ATCC 25922 after 17 to 20 hrs by serial dilution method
Compound,MIC (Staphylococcus aureus),MIC (Candida albicans),MIC (Escherichia coli)
CCCCCCCCCCCCCCCCCC(=O)N[C@@H](CCCCN)C(=O)N[C@@H](Cc1c[nH]c2ccccc12)C(=O)N[C@@H](CCCCN)C(=O)N[C@@H](Cc1c[nH]c2ccccc12)C(N)=O (Stearoyl-KWKW-NH2),> 31.2 µg/mL,> 62.5 µg/mL,> 31.2 µg/mL
CCCCCCCCCCCCCC(=O)N[C@@H](CCCNC(=N)N)C(=O)N[C@@H](Cc1c[nH]c2ccccc12)C(=O)N[C@@H](CCCNC(=N)N)C(N)=O (Myristoyl-Arg-Trp-Arg-NH2),15.6 µg/mL,> 62.5 µg/mL,15.6 µg/mL
CCCCCCCCCCCCCCCCCC(=O)N[C@@H](CCCCN)C(=O)N[C@@H](CCCNC(=N)N)C(=O)N[C@H](C(=O)N[C@@H](Cc1c[nH]c2ccccc12)C(=O)N[C@@H](Cc1c[nH]c2ccccc12)C(=O)N[C@@H](CCCNC(=N)N)C(N)=O)[C@@H](C)CC (Stearoyl-KRIWWR-NH2),15.6 µg/mL,> 62.5 µg/mL,> 31.2 µg/mL
CCCCCCCCCCCCCC(=O)N[C@@H](CCCNC(=N)N)C(=O)N[C@@H](CCCCN)C(=O)N[C@@H](Cc1c[nH]c2ccccc12)C(=O)N[C@@H](Cc1c[nH]c2ccccc12)C(=O)N[C@@H](CCCCN)C(N)=O (Myristoyl-RKWWK-NH2),7.8 µg/mL,> 62.5 µg/mL,15.6 µg/mL
CCCCCCCCCC(=O)N[C@@H](CCCNC(=N)N)C(=O)N[C@@H](Cc1c[nH]c2ccccc12)C(=O)N[C@@H](CCCNC(=N)N)C(N)=O (Decanoyl-Arg-Trp-Arg-NH2),7.8 µg/mL,> 62.5 µg/mL,15.6 µg/mL
CCCCCCCCCCCCCC(=O)N[C@@H](CCCCN)C(=O)N[C@@H](CCCCN)C(=O)N[C@@H](Cc1c[nH]c2ccccc12)C(=O)N[C@@H](Cc1c[nH]c2ccccc12)C(N)=O (Myristoyl-KKWW-NH2),7.8 µg/mL,15.6 µg/mL,15.6 µg/mL
CCCCCCCCCCCCCC(=O)N[C@@H](CCCNC(=N)N)C(=O)N[C@@H](Cc1c[nH]c2ccccc12)C(=O)N[C@@H](CCCNC(=N)N)C(=O)N[C@@H](Cc1c[nH]c2ccccc12)C(N)=O (Myristoyl-RWRW-NH2),15.6 µg/mL,> 62.5 µg/mL,15.6 µg/mL
CCCCCCCCCCCCCCCCCC(=O)N[C@@H](CCCNC(=N)N)C(=O)N[C@@H](Cc1c[nH]c2ccccc12)C(=O)N[C@@H](CCCNC(=N)N)C(N)=O (Stearoyl-Arg-Trp-Arg-NH2),> 31.2 µg/mL,> 62.5 µg/mL,> 31.2 µg/mL
CCCCCCCCCCCCCCCCCC(=O)N[C@@H](CCCCN)C(=O)N[C@@H](CCCCN)C(=O)N[C@@H](Cc1c[nH]c2ccccc12)C(=O)N[C@@H](CCCCN)C(N)=O (Stearoyl-KKWK-NH2),31.2 µg/mL,31.2 µg/mL,31.2 µg/mL
CCCCCCCCCCCCCCCCCC(=O)N[C@@H](CCCCN)C(=O)N[C@@H](CCCCN)C(=O)N[C@@H](Cc1c[nH]c2ccccc12)C(=O)N[C@@H](Cc1c[nH]c2ccccc12)C(N)=O (Stearoyl-KKWW-NH2),> 31.2 µg/mL,> 62.5 µg/mL,> 31.2 µg/mL
CCCCCCCCCC(=O)N[C@@H](CCCCN)C(=O)N[C@@H](CCCNC(=N)N)C(=O)N[C@H](C(=O)N[C@@H](Cc1c[nH]c2ccccc12)C(=O)N[C@@H](Cc1c[nH]c2ccccc12)C(=O)N[C@@H](CCCNC(=N)N)C(N)=O)[C@@H](C)CC (Decanoyl-KRIWWR-NH2),3.9 µg/mL,> 62.5 µg/mL,7.8 µg/mL
CCCCCCCCCC(=O)N[C@@H](CCCNC(=N)N)C(=O)N[C@@H](Cc1c[nH]c2ccccc12)C(=O)N[C@@H](CCCNC(=N)N)C(=O)N[C@@H](Cc1c[nH]c2ccccc12)C(N)=O (Decanoyl-RWRW-NH2),7.8 µg/mL,> 62.5 µg/mL,15.6 µg/mL
CCCCCCCCCC(=O)N[C@@H](CCCCN)C(=O)N[C@H](C(=O)N[C@@H](CCCCN)C(=O)N[C@@H](CCCNC(=N)N)C(=O)N[C@@H](Cc1c[nH]c2ccccc12)C(=O)N[C@@H](CCCNC(=N)N)C(N)=O)[C@@H](C)CC (Decanoyl-KIKRWR-NH2),15.6 µg/mL,> 62.5 µg/mL,31.2 µg/mL
CCCCCCCCCC(=O)N[C@@H](CCCCN)C(=O)N[C@@H](Cc1c[nH]c2ccccc12)C(=O)N[C@@H](Cc1c[nH]c2ccccc12)C(=O)N[C@@H](CCCCN)C(N)=O (Decanoyl-KWWK-NH2),7.8 µg/mL,31.2 µg/mL,15.6 µg/mL
CCCCCCCCCC(=O)N[C@@H](CCCCN)C(=O)N[C@H](C(=O)N[C@@H](CCCCN)C(=O)N[C@@H](CCCNC(=N)N)C(=O)N[C@@H](Cc1c[nH]c2ccccc12)C(=O)N[C@@H](Cc1c[nH]c2ccccc12)C(=O)N[C@@H](CCCNC(=N)N)C(N)=O)[C@@H](C)CC (Decanoyl-KIKRWWR-NH2),3.9 µg/mL,> 62.5 µg/mL,7.8 µg/mL
CCCCCCCCCC(=O)N[C@@H](CCCCN)C(=O)N[C@H](C(=O)N[C@@H](Cc1c[nH]c2ccccc12)C(=O)N[C@@H](Cc1c[nH]c2ccccc12)C(=O)N[C@@H](CCCCN)C(N)=O)[C@@H](C)CC (Decanoyl-KIWWK-NH2),3.9 µg/mL,15.6 µg/mL,7.8 µg/mL
